In PubChem BioAssay (NCI) one finds GI50 and TGI data, which are given here for nine compounds.

Structures are written as SMILES. “And” between values parts separate entries of the source, which are not always exact repeats. Equal entries are not always repeated.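 48-hour exposure; five concentrations; linearly interpolated endpoints. At the GI50, growth is halved. TGI is the concentration that stops growth completely.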

Test systems include A498 renal; EKVX NSCLC; HT29 colon; LOX IMVI melanoma; NCI-H226 lung; NCI-H23 lung; RXF 393 renal; SK-MEL-5 melanoma; UACC-62 melanoma.
Holding throughout (test): growth of human tumour cells (NCI), 48 h

As for `CCN(CC)CCNc1ccc([N+](=O)[O-])c2sc3ccccc3c(=O)c12`, the GI50 in the assay on A498 renal is 0.591 µM; with EKVX NSCLC it was 0.692 µM; in the assay with HT29 colon, 0.392 µM; in the assay on LOX IMVI melanoma, 0.421 µM; with NCI-H226 lung, 2.06 µM; with NCI-H23 lung it was 1.23 µM. Moreover, the figures for the GI50 with RXF 393 renal, in the assay with SK-MEL-5 melanoma and in the assay with UACC-62 melanoma were 1.43 µM, 1.53 µM and 2.79 µM, respectively. Moreover, the TGI in the assay with A498 renal was determined as 2.16 µM; with EKVX NSCLC, 2.53 µM; in the assay with HT29 colon, 1.59 µM; in the assay with LOX IMVI melanoma, 1.79 µM; with NCI-H226 lung, 6.6 µM; in the assay on NCI-H23 lung, 2.78 µM. Also, the TGI with RXF 393 renal amounted to 3.03 µM; in the assay with SK-MEL-5 melanoma, 2.9 µM; with UACC-62 melanoma, 16.8 µM.
In the case of `COc1ccccc1/C=C/[N+](=O)[O-]`, the GI50 with A498 renal is 1.93 µM; with EKVX NSCLC it was 15.3 µM; in the assay with HT29 colon it was 2.01 µM; in the assay with LOX IMVI melanoma it was 1.4 µM; in the assay with NCI-H226 lung, 3.41 µM; in the assay on NCI-H23 lung, 1.96 µM. The GI50 in the assay with RXF 393 renal was 1.43 µM; in the assay on SK-MEL-5 melanoma, 2 µM; in the assay with UACC-62 melanoma it was 1.95 µM. Also, the TGI with A498 renal came to 5.03 µM; with EKVX NSCLC, 58.3 µM; in the assay with HT29 colon, 3.85 µM; in the assay with LOX IMVI melanoma it was 2.86 µM; in the assay on NCI-H226 lung, 11.7 µM; in the assay on NCI-H23 lung it was 4.6 µM. The results for the TGI in the assay on RXF 393 renal, in the assay with SK-MEL-5 melanoma and with UACC-62 melanoma were 2.81 µM, 4.03 µM and 4.13 µM, respectively.
Regarding `O=C(/C=C/C12c3ccccc3C(c3ccccc31)C1C(=O)N(c3ccccc3)C(=O)C12)c1ccccc1` (centres undefined), the GI50 in the assay on A498 renal is 0.763 µM; in the assay with EKVX NSCLC, 2.09 µM; with HT29 colon, 2.69 µM; in the assay on LOX IMVI melanoma it was 1.66 µM; with NCI-H226 lung it was 2.34 µM; in the assay on NCI-H23 lung it was 2.69 µM. In addition, the values for the GI50 in the assay on RXF 393 renal, in the assay on SK-MEL-5 melanoma and in the assay with UACC-62 melanoma were 1.21 µM, 2.29 µM and 1.66 µM, respectively. The TGI is 2.2 µM in the assay with A498 renal; > 100 µM with EKVX NSCLC; > 100 µM in the assay with HT29 colon; 3.51 µM with LOX IMVI melanoma; 8.63 µM in the assay with NCI-H226 lung; 18.1 µM in the assay on NCI-H23 lung. The TGI in the assay on RXF 393 renal is 2.82 µM; in the assay on SK-MEL-5 melanoma, 6.21 µM; with UACC-62 melanoma, 4.94 µM.
For `COc1ccc2c(c1)C(=O)c1c-2n(CCCN=[N+]=[N-])c(=O)c2cc(N(C)C)ccc12`, the GI50 with A498 renal, in the assay on EKVX NSCLC, with HT29 colon, in the assay with LOX IMVI melanoma, in the assay with NCI-H226 lung and in the assay on NCI-H23 lung was > 100 µM in each case. Also, the GI50 with RXF 393 renal was 5.16 µM; with SK-MEL-5 melanoma it was 23.8 µM; in the assay on UACC-62 melanoma it was > 100 µM. Further, the TGI in the assay on A498 renal, in the assay on EKVX NSCLC, with HT29 colon, with LOX IMVI melanoma, in the assay with NCI-H226 lung and in the assay with NCI-H23 lung was > 100 µM in each case. In addition, the TGI is 80.8 µM in the assay with RXF 393 renal, > 100 µM in the assay on SK-MEL-5 melanoma and > 100 µM in the assay with UACC-62 melanoma.
With `Oc1ccc(C(c2ccc(O)cc2)c2ccc(Cl)cn2)cc1`, the GI50 is 0.344 µM with A498 renal; 0.349 µM in the assay with EKVX NSCLC; 4.97 µM with HT29 colon; 0.295 µM in the assay with LOX IMVI melanoma; 1.93 µM in the assay on NCI-H226 lung; 0.0959 µM with NCI-H23 lung. Moreover, the GI50 in the assay on RXF 393 renal is 0.0593 µM; in the assay with SK-MEL-5 melanoma, 15.6 µM; with UACC-62 melanoma it was 1.59 µM. In addition, the TGI was 26.5 µM with A498 renal; 6.59 µM with EKVX NSCLC; > 100 µM in the assay on HT29 colon; > 100 µM in the assay on LOX IMVI melanoma; > 45.8 µM in the assay with NCI-H226 lung; 0.983 µM in the assay on NCI-H23 lung. Further, the values for the TGI in the assay on RXF 393 renal, with SK-MEL-5 melanoma and with UACC-62 melanoma were 1.65 µM, 34.5 µM and 17.8 µM, respectively.
With `CCCC(=O)Nc1cc(C(=O)N2C[C@@H]3C[C@]34C2=CC(=O)c2[nH]cc(C)c24)n(COC)c1`, the TGI in the assay on A498 renal is 19.2 µM and 25.1 µM; in the assay with EKVX NSCLC, 30 µM and 25.2 µM; in the assay on HT29 colon it was 24.6 µM and 29 µM; with LOX IMVI melanoma, 30 µM and 7.17 µM; in the assay on NCI-H226 lung, 42.1 µM; in the assay on NCI-H23 lung, 9.19 µM and 3.6 µM. The TGI in the assay on RXF 393 renal is 9.21 µM and 3.33 µM; in the assay with SK-MEL-5 melanoma, 5.38 µM and 3.24 µM; in the assay with UACC-62 melanoma it was 13.5 µM and 8.75 µM. The GI50 is 5.62 µM in the assay with EKVX NSCLC, 2.06 µM with LOX IMVI melanoma, 1.38 µM in the assay on NCI-H23 lung and 2.84 µM with UACC-62 melanoma.
On to `O=C(Nc1cccc([N+](=O)[O-])c1)C(=O)C(C(=O)c1ccccc1-c1ccccc1)C1OC(=O)c2ccccc21` (centres undefined), for which the TGI in the assay on A498 renal was 60.2 µM; in the assay with EKVX NSCLC, 59.1 µM; with HT29 colon it was > 100 µM; in the assay on LOX IMVI melanoma, 36.6 µM; in the assay with NCI-H226 lung it was 25.9 µM; with NCI-H23 lung, 30.1 µM. Also, the results for the TGI in the assay with RXF 393 renal, in the assay on SK-MEL-5 melanoma and in the assay on UACC-62 melanoma were 28.5 µM, 30.7 µM and 45.7 µM, respectively.
Take `COc1cc(/C=C2\CCC/C(=C\c3cc(OC)c(O)c(OC)c3)C2=O)cc(OC)c1O`: the GI50 with A498 renal is 2.18 µM; in the assay on EKVX NSCLC it was 5.14 µM; with HT29 colon it was 3.8 µM; with LOX IMVI melanoma it was 1.53 µM; in the assay on NCI-H226 lung it was 3.91 µM; in the assay on SK-MEL-5 melanoma, 2.83 µM. In addition, the TGI with A498 renal was 3.21 µM and 4.81 µM; in the assay on EKVX NSCLC it was 75 µM and > 100 µM; in the assay with HT29 colon, 38 µM and > 100 µM; in the assay on NCI-H226 lung, 47.9 µM and > 100 µM; with NCI-H23 lung it was 3.5 µM and 4.19 µM; in the assay on RXF 393 renal, 3.22 µM. Further, the TGI in the assay with SK-MEL-5 melanoma is 75 µM and 19.6 µM; with UACC-62 melanoma, 5.2 µM.
In the case of `C/C(=N\O)c1cccc(Nc2cc(-n3ccnn3)c3ccccc3n2)c1`, the GI50 with A498 renal is 15.2 µM; in the assay with EKVX NSCLC it was 19 µM; with HT29 colon, 2.17 µM; in the assay on LOX IMVI melanoma, 15.4 µM; in the assay on NCI-H226 lung, 0.388 µM; with NCI-H23 lung, 21.3 µM. The figures for the GI50 with RXF 393 renal, with SK-MEL-5 melanoma and in the assay with UACC-62 melanoma were 13.6 µM, 13.4 µM and 12.8 µM, respectively. For the same compound, the TGI with A498 renal came out at 38.3 µM; in the assay on EKVX NSCLC, 76.1 µM; in the assay with HT29 colon, 82.5 µM; in the assay on LOX IMVI melanoma it was 30.4 µM; in the assay with NCI-H226 lung it was 9.35 µM; with NCI-H23 lung, 48.6 µM. The TGI with RXF 393 renal was determined as 39.8 µM; in the assay with SK-MEL-5 melanoma, 26.2 µM; in the assay with UACC-62 melanoma it was 25.4 µM.
